From the NIST ThermoML archive (doi:10.1021/je200822w) come the findings set out here.

The data set is described as follows: activity coefficient (dimensionless); of the first substance listed, at infinite dilution; xn = mol fraction of the nth substance listed. The note with it: 101 kPa, Liquid, Chromatography, x1 = 0.

Numbers after ± are expanded uncertainties.

Take `CCOC(C)=O` [ethyl acetate] + CCCC[N+]1(C)CCCC1.N#CN=C=[N-]: the activity coefficient by setting is: (318.15 K) 2.33 ± 0.16; (323.15 K) 2.35 ± 0.16; (333.15 K) 2.39 ± 0.16; (343.15 K) 2.43 ± 0.17; (353.15 K) 2.47 ± 0.17.

For the compound `Cc1cccc(C)c1` [1,3-dimethylbenzene] + CCCC[N+]1(C)CCCC1.N#CN=C=[N-], the activity coefficient is 3.46 ± 0.24 (318.15 K); 3.5 ± 0.24 (323.15 K); 3.56 ± 0.24 (333.15 K); 3.61 ± 0.25 (343.15 K); 3.67 ± 0.25 (353.15 K).

For `CC1CCCCC1` [methylcyclohexane] + CCCC[N+]1(C)CCCC1.N#CN=C=[N-], the activity coefficient was 32.5 ± 2.2 (318.15 K); 31.7 ± 2.2 (323.15 K); 30 ± 2.1 (333.15 K); 28.4 ± 1.9 (343.15 K); 27.1 ± 1.9 (353.15 K).

Consider `CC(C)O` [propan-2-ol] + CCCC[N+]1(C)CCCC1.N#CN=C=[N-], for which the activity coefficient reads like this: (318.15 K) 0.771 ± 0.05; (323.15 K) 0.761 ± 0.05; (333.15 K) 0.746 ± 0.049; (343.15 K) 0.733 ± 0.049; (353.15 K) 0.724 ± 0.048.

With `COCCOC` [1,2-dimethoxyethane] + CCCC[N+]1(C)CCCC1.N#CN=C=[N-], the activity coefficient reads like this: (318.15 K) 1.19 ± 0.08; (323.15 K) 1.23 ± 0.08; (333.15 K) 1.31 ± 0.09; (343.15 K) 1.39 ± 0.09; (353.13 K) 1.46 ± 0.1.

Turning to `CCC(C)=O` [butanone] + CCCC[N+]1(C)CCCC1.N#CN=C=[N-], the activity coefficient by setting is: (318.15 K) 1.26 ± 0.08; (323.15 K) 1.27 ± 0.08; (333.15 K) 1.32 ± 0.09; (343.15 K) 1.33 ± 0.09; (353.15 K) 1.35 ± 0.09.

`FC(F)(F)C(Cl)Br` (stereo not given) [1-bromo-1-chloro-2,2,2-trifluoroethane] + CCCC[N+]1(C)CCCC1.N#CN=C=[N-]: the activity coefficient by setting is: (318.15 K) 0.568 ± 0.041; (323.15 K) 0.606 ± 0.042; (333.15 K) 0.694 ± 0.047; (343.15 K) 0.776 ± 0.051; (353.15 K) 0.866 ± 0.055.

For the compound `COC(C)=O` [methyl ethanoate] + CCCC[N+]1(C)CCCC1.N#CN=C=[N-], the activity coefficient (318.15 K) came out at 1.51 ± 0.1; the activity coefficient (323.15 K) stood at 1.53 ± 0.1; the activity coefficient (333.15 K) came out at 1.56 ± 0.1; the activity coefficient (343.15 K) worked out at 1.59 ± 0.11; the activity coefficient (353.15 K) is 1.63 ± 0.11.

As for `CCCCCCC` [heptane] + CCCC[N+]1(C)CCCC1.N#CN=C=[N-], the activity coefficient came out at 76 ± 5.2 (318.15 K); 73.6 ± 5 (323.15 K); 68.9 ± 4.7 (333.15 K); 64.7 ± 4.4 (343.15 K); 60.9 ± 4.2 (353.15 K).

`CC(C)=O` [acetone] + CCCC[N+]1(C)CCCC1.N#CN=C=[N-]: the activity coefficient came out at 0.905 ± 0.057 (318.15 K); 0.917 ± 0.058 (323.15 K); 0.942 ± 0.059 (333.15 K); 0.963 ± 0.061 (343.15 K); 0.986 ± 0.062 (353.15 K).

On to `C1CCCCC1` [cyclohexane] + CCCC[N+]1(C)CCCC1.N#CN=C=[N-], for which the activity coefficient (318.15 K) is 21.1 ± 1.4; the activity coefficient (323.15 K) worked out at 20.6 ± 1.4; the activity coefficient (333.15 K) was determined as 19.5 ± 1.3; the activity coefficient (343.15 K) was 18.5 ± 1.3; the activity coefficient (353.15 K) was found to be 17.7 ± 1.2.

Take `C[N+](=O)[O-]` [nitromethane] + CCCC[N+]1(C)CCCC1.N#CN=C=[N-]: the activity coefficient by setting is: (318.15 K) 0.592 ± 0.042; (323.15 K) 0.596 ± 0.042; (333.15 K) 0.604 ± 0.042; (343.15 K) 0.609 ± 0.043; (353.15 K) 0.615 ± 0.043.

Regarding `CC#N` [acetonitrile] + CCCC[N+]1(C)CCCC1.N#CN=C=[N-], the activity coefficient runs as follows: (318.15 K) 0.67 ± 0.045; (323.15 K) 0.676 ± 0.046; (333.15 K) 0.68 ± 0.046; (343.15 K) 0.684 ± 0.046; (353.15 K) 0.687 ± 0.046.
